Experimental findings from patent publication US6316439A, “Galanthamine derivatives as acetylcholinesterase inhibitors” (priority 1993, dated 2001) are described below.

Where a name gives a salt, the structure may show the parent alone. Read-outs that look alike come from different tables or passages of the source.

The target in one test is acetylcholinesterase (Homo sapiens, UniProt P22303). Briefly: Acetylcholinesterase Inhibition Assay (photometric method of Ellman et al.). The format is biochemical.
acetylcholinesterase, sequence (P22303 32-614): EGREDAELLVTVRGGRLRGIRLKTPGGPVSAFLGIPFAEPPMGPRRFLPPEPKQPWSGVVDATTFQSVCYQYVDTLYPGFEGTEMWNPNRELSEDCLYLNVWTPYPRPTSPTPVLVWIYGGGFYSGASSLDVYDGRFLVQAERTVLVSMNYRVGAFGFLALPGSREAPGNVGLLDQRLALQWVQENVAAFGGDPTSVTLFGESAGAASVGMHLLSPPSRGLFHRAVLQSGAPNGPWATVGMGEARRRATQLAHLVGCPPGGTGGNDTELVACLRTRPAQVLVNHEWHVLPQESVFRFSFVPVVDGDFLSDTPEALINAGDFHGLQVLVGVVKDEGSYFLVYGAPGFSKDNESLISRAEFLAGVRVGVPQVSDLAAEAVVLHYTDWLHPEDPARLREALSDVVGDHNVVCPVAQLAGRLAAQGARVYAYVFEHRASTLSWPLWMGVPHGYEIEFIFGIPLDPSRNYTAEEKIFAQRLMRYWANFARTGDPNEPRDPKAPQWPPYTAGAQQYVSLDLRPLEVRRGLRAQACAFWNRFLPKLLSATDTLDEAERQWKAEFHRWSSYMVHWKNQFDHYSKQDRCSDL
Another test deals with mice. Briefly: Dark Avoidance Assay (SDDA), reversal of scopolamine induced memory deficit. Format: in vivo. Particulars: s.c., retest after 24 hours. How it is done:
This utility can also be ascertained by determining the ability of these compounds to restore cholinergically deficient memory in the Dark Avoidance Assay. In this assay mice are tested for their ability to remember an unpleasant stimulus for a period of 24 hours. A mouse is placed in a chamber that contains a dark compartment; a strong incandescent light drives it to the dark compartment, where an electric shock is administered through metal plates on the floor. The animal is removed from the testing apparatus and tested again, 24 hours later, for the ability to remember the electric shock.
If scopolamine, an anticholinergic that is known to cause memory impairment, is administered before an animal's initial exposure to the test chamber, the animal re-enters the dark compartment shortly after being placed in the test chamber 24 hours later. This effect of scopolamine is blocked by an active test compounds, resulting in a greater interval before re-entry into the dark compartment.
The test results are expressed as the percent of a group of animals in which the effect of scopolamine is blocked, as manifested by an increased interval between being placed in the test chamber and reentering the dark compartment. Results of Dark Avoidance Assay for some of the compounds of this invention are presented in Table II along with a result for a reference compounds.

For the compound `CC(C)OC(=O)Oc1ccc2c3c1O[C@H]1C[C@@H](O)C=C[C@@]31CCN(C)C2` [6-O-Demethyl-6-O-(2-propoxycarbonyl)galanthamine], on acetylcholinesterase, the IC50 came to 1610 nM.

Regarding `CC(C)OC(=O)Oc1ccc2c3c1O[C@H]1C[C@@H](O)C=C[C@@]31CCN(C)C2` [Example 9, 6-O-Demethyl-6-O-(prop-2-yl-oxycarbonyl)galanthamine hydrochloride], the “Percent of Animals with Scopolamine Induced Memory Deficit Reversal” value (shortened to “Percent of Animals”) in the test with mice (0.10 mg/kg) is reported as 33% of Animals.

Regarding `Nc1c2c(nc3ccccc13)CCCC2` [Tacrine, reference compound], in the test with mice (0.31 mg/kg), the “Percent of Animals” value is recorded as 33% of Animals.

On to `CN1CC[C@@]23C=C[C@H](O)C[C@@H]2Oc2c(OC(=O)C(C)(C)C)ccc(c23)C1` [Example 3, 6-O-Demethyl-6-O-(t-butylcarbonyl)galanthamine hydrochloride], for which the IC50 at acetylcholinesterase (photometric method of Ellman et al., read-out: IC50 CHE I) worked out at 2690 nM.

Turning to `CN1CC[C@@]23C=C[C@H](O)C[C@@H]2Oc2c(OC(=O)C(C)(C)C)ccc(c23)C1` [6-O-Demethyl-6-O-(trimethylacetyl)-galanthamine], the “Percent of Animals” value with mice (0.10 mg/kg) is 53% of Animals.

With `CC(C)OC(=O)OC1C=CC23CCN(C)Cc4ccc(OC(=O)C(C)(C)C)c(c42)OC3C1.Cl.O` (stereo not drawn) [6-O-Demethyl-3-O-(2-propoxy-carbonyl)-6-O-(t-butylcarbonyl)-galanthamine hydrochloride hydrate], in the test with mice (0.10 mg/kg), the “Percent of Animals” value was 53% of Animals.
